Active and inactive are the calls of the source.
Assays:
Type in all cases: cell-based
[1] = molecular target: T1, Glucocorticoid receptor (Homo sapiens) (UniProt P04150); assay: Activation of glulcocorticoid receptor (unknown origin) expressed in human U2OS cells at 1 uM incubated for 24 hrs by luciferase reporter gene assay
T1 sequence (whole entry): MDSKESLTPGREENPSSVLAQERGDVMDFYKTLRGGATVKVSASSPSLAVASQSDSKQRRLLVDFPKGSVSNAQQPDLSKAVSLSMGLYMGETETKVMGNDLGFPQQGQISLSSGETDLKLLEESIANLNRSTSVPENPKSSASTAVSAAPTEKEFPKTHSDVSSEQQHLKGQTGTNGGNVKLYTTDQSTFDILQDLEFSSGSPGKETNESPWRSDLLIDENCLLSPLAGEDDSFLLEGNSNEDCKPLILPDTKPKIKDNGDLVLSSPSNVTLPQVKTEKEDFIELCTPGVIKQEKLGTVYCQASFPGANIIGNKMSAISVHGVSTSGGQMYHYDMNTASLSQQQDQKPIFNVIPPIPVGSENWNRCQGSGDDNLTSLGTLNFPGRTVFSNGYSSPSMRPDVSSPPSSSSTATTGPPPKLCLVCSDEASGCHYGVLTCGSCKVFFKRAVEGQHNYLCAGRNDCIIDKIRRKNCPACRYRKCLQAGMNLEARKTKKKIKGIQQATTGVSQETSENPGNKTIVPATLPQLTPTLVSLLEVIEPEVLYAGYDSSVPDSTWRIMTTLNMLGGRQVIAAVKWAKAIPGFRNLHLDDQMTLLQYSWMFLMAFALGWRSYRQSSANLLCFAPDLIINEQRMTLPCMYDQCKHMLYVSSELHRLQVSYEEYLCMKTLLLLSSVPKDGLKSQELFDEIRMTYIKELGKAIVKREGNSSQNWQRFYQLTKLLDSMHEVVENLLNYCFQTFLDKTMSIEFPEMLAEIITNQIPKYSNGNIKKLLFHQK

[2] = molecular target: T2, Peroxisome proliferator-activated receptor gamma (Homo sapiens) (UniProt P37231); assay: Activation of PPARG (unknown origin) expressed in human U2OS cells at 1 uM incubated for 24 hrs by luciferase reporter gene assay
T2 sequence (whole entry): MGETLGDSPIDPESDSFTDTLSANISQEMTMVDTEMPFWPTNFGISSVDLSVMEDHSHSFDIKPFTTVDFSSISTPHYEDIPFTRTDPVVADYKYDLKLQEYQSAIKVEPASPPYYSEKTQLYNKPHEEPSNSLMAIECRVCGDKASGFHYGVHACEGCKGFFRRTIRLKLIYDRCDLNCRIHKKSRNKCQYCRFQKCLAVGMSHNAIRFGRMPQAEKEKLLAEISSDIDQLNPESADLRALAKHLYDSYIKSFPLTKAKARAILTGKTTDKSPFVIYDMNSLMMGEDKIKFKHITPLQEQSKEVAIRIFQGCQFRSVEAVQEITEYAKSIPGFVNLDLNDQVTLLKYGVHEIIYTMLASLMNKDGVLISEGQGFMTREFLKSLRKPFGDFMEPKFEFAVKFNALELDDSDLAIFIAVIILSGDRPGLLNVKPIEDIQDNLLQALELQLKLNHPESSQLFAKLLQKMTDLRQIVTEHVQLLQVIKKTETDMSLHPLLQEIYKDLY

[3] = molecular target: T3, Estrogen receptor (Homo sapiens) (UniProt P03372); assay: Activation of ERalpha (unknown origin) expressed in human U2OS cells at 1 uM incubated for 24 hrs by luciferase reporter gene assay
T3 sequence (whole entry): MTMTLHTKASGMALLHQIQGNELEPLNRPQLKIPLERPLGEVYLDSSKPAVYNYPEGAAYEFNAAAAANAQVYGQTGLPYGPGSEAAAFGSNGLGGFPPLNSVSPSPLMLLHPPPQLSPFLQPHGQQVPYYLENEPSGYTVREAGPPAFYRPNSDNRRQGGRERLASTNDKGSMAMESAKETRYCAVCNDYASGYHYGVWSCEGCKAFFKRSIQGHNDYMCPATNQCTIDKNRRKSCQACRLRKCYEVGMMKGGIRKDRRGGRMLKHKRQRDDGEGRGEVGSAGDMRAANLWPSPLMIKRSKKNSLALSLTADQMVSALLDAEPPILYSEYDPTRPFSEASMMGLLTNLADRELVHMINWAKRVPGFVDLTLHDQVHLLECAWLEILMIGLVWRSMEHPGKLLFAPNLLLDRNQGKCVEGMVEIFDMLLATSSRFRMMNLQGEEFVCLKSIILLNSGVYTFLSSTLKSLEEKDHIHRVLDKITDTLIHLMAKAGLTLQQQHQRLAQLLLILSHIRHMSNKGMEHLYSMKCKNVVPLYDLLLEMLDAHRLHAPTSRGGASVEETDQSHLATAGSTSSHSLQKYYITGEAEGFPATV

[4] = molecular target: Estrogen receptor beta (Homo sapiens) (UniProt Q92731); assay: Activation of ERbeta (unknown origin) expressed in human U2OS cells at 1 uM incubated for 24 hrs by luciferase reporter gene assay
Sequence of Estrogen receptor beta (Homo sapiens) (Q92731 whole entry): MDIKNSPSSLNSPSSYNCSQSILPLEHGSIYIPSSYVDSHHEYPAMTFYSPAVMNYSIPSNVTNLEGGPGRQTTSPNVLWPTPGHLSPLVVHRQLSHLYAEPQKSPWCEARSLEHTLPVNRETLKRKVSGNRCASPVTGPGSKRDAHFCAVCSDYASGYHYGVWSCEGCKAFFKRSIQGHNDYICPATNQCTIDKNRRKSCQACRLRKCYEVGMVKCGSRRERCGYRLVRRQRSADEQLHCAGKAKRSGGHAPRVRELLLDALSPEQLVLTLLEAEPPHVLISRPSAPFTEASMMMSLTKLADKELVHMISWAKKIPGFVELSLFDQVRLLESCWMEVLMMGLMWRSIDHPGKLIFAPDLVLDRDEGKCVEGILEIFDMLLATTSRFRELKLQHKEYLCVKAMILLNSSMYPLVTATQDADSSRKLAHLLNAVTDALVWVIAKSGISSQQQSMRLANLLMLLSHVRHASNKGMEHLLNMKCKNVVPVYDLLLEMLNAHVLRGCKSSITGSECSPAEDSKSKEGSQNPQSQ

[5] = molecular target: T1, Glucocorticoid receptor (Homo sapiens); assay: Activation of glulcocorticoid receptor (unknown origin) expressed in human U2OS cells at 1 uM in presence of 0.1 uM dexamethasone incubated for 24 hrs by luciferase reporter gene assay
[6] = molecular target: T2, Peroxisome proliferator-activated receptor gamma (Homo sapiens); assay: Activation of PPARG (unknown origin) expressed in human U2OS cells at 1 uM in presence of 10 uM rosiglitazone incubated for 24 hrs by luciferase reporter gene assay
[7] = molecular target: T3, Estrogen receptor (Homo sapiens); assay: Activation of ERalpha (unknown origin) expressed in human U2OS cells at 1 uM in presence of 0.01 uM E2 incubated for 24 hrs by luciferase reporter gene assay
[8] = molecular target: Estrogen receptor beta (Homo sapiens) (UniProt Q92731); assay: Activation of ERbeta (unknown origin) expressed in human U2OS cells at 1 uM in presence of 0.01 uM E2 incubated for 24 hrs by luciferase reporter gene assay
[9] = molecular target: T1, Glucocorticoid receptor (Homo sapiens); assay: Activation of glulcocorticoid receptor (unknown origin) expressed in human U2OS cells at 0.2 uM incubated for 24 hrs by luciferase reporter gene assay
[10] = molecular target: T2, Peroxisome proliferator-activated receptor gamma (Homo sapiens); assay: Activation of PPARG (unknown origin) expressed in human U2OS cells at 0.2 uM incubated for 24 hrs by luciferase reporter gene assay
[11] = molecular target: T3, Estrogen receptor (Homo sapiens); assay: Activation of ERalpha (unknown origin) expressed in human U2OS cells at 0.2 uM incubated for 24 hrs by luciferase reporter gene assay
[12] = molecular target: Estrogen receptor beta (Homo sapiens) (UniProt Q92731); assay: Activation of ERbeta (unknown origin) expressed in human U2OS cells at 0.2 uM incubated for 24 hrs by luciferase reporter gene assay
[13] = molecular target: T1, Glucocorticoid receptor (Homo sapiens); assay: Activation of glulcocorticoid receptor (unknown origin) expressed in human U2OS cells at 0.2 uM in presence of 0.1 uM dexamethasone incubated for 24 hrs by luciferase reporter gene assay
[14] = molecular target: T2, Peroxisome proliferator-activated receptor gamma (Homo sapiens); assay: Activation of PPARG (unknown origin) expressed in human U2OS cells at 0.2 uM in presence of 10 uM rosiglitazone incubated for 24 hrs by luciferase reporter gene assay
[15] = molecular target: T3, Estrogen receptor (Homo sapiens); assay: Activation of ERalpha (unknown origin) expressed in human U2OS cells at 0.2 uM in presence of 0.01 uM E2 incubated for 24 hrs by luciferase reporter gene assay
[16] = molecular target: Estrogen receptor beta (Homo sapiens) (UniProt Q92731); assay: Activation of ERbeta (unknown origin) expressed in human U2OS cells at 0.2 uM in presence of 0.01 uM E2 incubated for 24 hrs by luciferase reporter gene assay

Measured: Activity

Nc1cc(F)ccc1NC(=O)c1ccc(CNC(=O)/C=C/c2cccnc2)cc1
active: [1] | [2] | [3] | [4] | [5] | [6] | [7] | [8]

Nc1ccccc1NC(=O)c1ccc(CNC(=O)OCc2cccnc2)cc1
active: [1] | [2] | [3] | [4] | [5] | [6] | [7] | [8]

CC(/C=C/C(=O)NO)=C\[C@@H](C)C(=O)c1ccc(N(C)C)cc1
active: [9] | [10] | [11] | [12] | [13] | [14] | [15] | [16]
